Measured values from patent publication US20160177261A1, “METHODS OF INDUCING AND PREVENTING NEUROFIBROMATOSIS IN SCHWANN CELLS” (University of Central Florida Research Foundation, Inc., priority 2007, published 2016).
Entries after “also recorded” stand apart in the source; their conditions may differ.

Key:
Assay type in all cases: cell-based, rat
ErbB2 = experiment: Western blot densitometry of total ErbB2 protein in subconfluent SCs
Procedure: (§1) FIG. 3: NRG1 stimulates phosphorylation of Sch by PKA. A, C) Subconfluent SC cultures grown on PLL were serum-starved overnight and were stimulated for 30 minutes with NRG1 (10 ng/ml) in the absence and presence of AG825 (1 μM). Western blot analysis was used to determine the levels of phosphorylated and total ErbB2, Sch, and Pak. B, D) Quantification of the western blots of starved (D0.5), NRG1 stimulated (NRG) and NRG1 plus AG825 (N+A) stimulated cultures is shown. E) Subconfluent SCs grown as above were stimulated for 30 minutes with NRG in the presence and absence of PKI 14-22 (50 nM), and with forskolin (FSK; 2 μM) alone. F) Quantification of the Western blots for ErbB2, Sch, and Pak in starved (D0.5) cultures, and in those stimulated with NRG1 (NRG), NRG1 with PKI 14-22 (N+P), and forskolin (FSK) is shown. GAPDH was used as a loading control for all blots. The graphs represent the average fold increase in each condition in three or more experiments. […]
(§2) FIG. 6: β1 integrin and ErbB2 Exist as a Complex on the Plasma Membrane. […] E) Quantification of total β1 integrin and ErbB2 expression was assessed by densitometry in starved (D0.5), NRG1 stimulated (NRG) and NRG with AG825 (N+A) stimulated cultures. […] G) Quantification of total β1 integrin and ErbB2 expression in starved (D0.5), laminin-stimulated (Lam) and laminin+AG825 (L+A) stimulated cultures is shown. […]

Pak = experiment: Western blot densitometry of total Pak protein in subconfluent SCs; conditions: NRG1 and laminin-1 30 min in the presence and absence of AG825
Procedure: (§3) FIG. 4: Soluble Laminin-1 Stimulates Phosphorylation of Sch. A, C) Subconfluent SC cultures grown on PLL were stimulated with laminin-1 (10 μg/ml) for 30 minutes after overnight serum starvation. Western blot analysis using antibodies specific for the phosphorylated forms of Sch (PS518-Sch) and Pak (P-Pak) and antibodies against total Sch (Sch-C18), Pak, and β1 integrin are shown. B, D). Quantification of Western blots for starved (D0.5) and laminin-1 stimulated (Lam) cultures is shown. The graphs represent the average fold increase in each condition observed in three or more experiments. GAPDH was used as a loading control for all blots. Error bars represent the SEM for each condition. P values are <0.05(*) and <0.01(**).
(§4) Subconfluent SC cultures grown on PLL were serum-starved overnight and were stimulated for 30 minutes with NRG1 (10 ng/ml) and laminin-1 ([…]) together, in the absence and presence of AG825 (1 μM). […] Total protein expression was analyzed using antibodies against Sch (Sch-C18), Pak, β1 integrin, and ErbB2. B, D, F) Quantification of the expression levels of phosphorylated forms of Sch (PS518-Sch) and Pak (P-Pak) were assessed in starved (D0.5), NRG1 and laminin-1 stimulated (NRG+Lam), and NRG1 plus laminin-1 and AG825 (N+L+A) stimulated cultures. The amount of total Sch (Sch-C18), Pak, β1 integrin, and ErbB2 proteins were measured by densitometry. […]

Sch = experiment: Western blot densitometry of total Sch (Sch-C18) protein in subconfluent SCs; conditions: NRG1 and laminin-1 30 min in the presence and absence of AG825
Procedure: as §3, §4

PS518-Sch = experiment: Western blot densitometry of Sch-S518 phosphorylation in subconfluent SCs
Procedure: FIG. 3: NRG1 stimulates phosphorylation of Sch by PKA. A, C) Subconfluent SC cultures grown on PLL were serum-starved overnight and were stimulated for 30 minutes with NRG1 (10 ng/ml) in the absence and presence of AG825 (1 μM). Western blot analysis was used to determine the levels of phosphorylated and total ErbB2, Sch, and Pak. B, D) Quantification of the western blots of starved (D0.5), NRG1 stimulated (NRG) and NRG1 plus AG825 (N+A) stimulated cultures is shown. E) Subconfluent SCs grown as above were stimulated for 30 minutes with NRG in the presence and absence of PKI 14-22 (50 nM), and with forskolin (FSK; 2 μM) alone. F) Quantification of the Western blots for ErbB2, Sch, and Pak in starved (D0.5) cultures, and in those stimulated with NRG1 (NRG), NRG1 with PKI 14-22 (N+P), and forskolin (FSK) is shown. GAPDH was used as a loading control for all blots. The graphs represent the average fold increase in each condition in three or more experiments. Error bars represent the SEM for each condition. P values are <0.05(*) with respect to starved SCs or as indicated.
as §3
Subconfluent SC cultures grown on PLL were serum-starved overnight and were stimulated for 30 minutes with NRG1 (10 ng/ml) and laminin-1 ([…]) together, in the absence and presence of AG825 (1 μM). A, C, E, G) Western blot analyses were conducted using phospho-specific antibodies for Sch (PS518-Sch), Pak (P-Pak), and CREB (P-CREB). Total protein expression was analyzed using antibodies against Sch (Sch-C18), Pak, β1 integrin, and ErbB2. B, D, F) Quantification of the expression levels of phosphorylated forms of Sch (PS518-Sch) and Pak (P-Pak) were assessed in starved (D0.5), NRG1 and laminin-1 stimulated (NRG+Lam), and NRG1 plus laminin-1 and AG825 (N+L+A) stimulated cultures. The amount of total Sch (Sch-C18), Pak, β1 integrin, and ErbB2 proteins were measured by densitometry. GAPDH was used as a loading control. The graphs represent the average fold increase in each condition in three or more experiments. Error bars represent the SEM for each condition. […]

P-Pak = experiment: Western blot densitometry of phosphorylated Pak in subconfluent SCs
Procedure: as §1, with “shown.” for “shown. GAPDH was used as a loading control for all blots. The graphs represent the average fold increase in each condition in three or more experiments.”
FIG. 4: Soluble Laminin-1 Stimulates Phosphorylation of Sch. […] Quantification of Western blots for starved (D0.5) and laminin-1 stimulated (Lam) cultures is shown. […]
Subconfluent SC cultures grown on PLL were serum-starved overnight and were stimulated for 30 minutes with NRG1 (10 ng/ml) and laminin-1 ([…]) together, in the absence and presence of AG825 (1 μM). […] Total protein expression was analyzed using antibodies against Sch (Sch-C18), Pak, β1 integrin, and ErbB2. […] The amount of total Sch (Sch-C18), Pak, β1 integrin, and ErbB2 proteins were measured by densitometry. […]

P-CREB = experiment: Western blot of phosphorylated CREB in subconfluent SCs
Procedure: as §1, with “shown.” for “shown. GAPDH was used as a loading control for all blots. The graphs represent the average fold increase in each condition in three or more experiments.”
as §4, with “cultures.” for “cultures. The amount of total Sch (Sch-C18), Pak, β1 integrin, and ErbB2 proteins were measured by densitometry.”

P-ErbB2 = experiment: Western blot densitometry of phosphorylated ErbB2 in subconfluent SCs; conditions: NRG1 10 ng/ml 30 min with AG825 (1 μM)
Procedure: as §1, with “experiments. Error bars represent the SEM for each condition.” for “experiments.”
Primary rat SCs were grown to approximately 60% confluency on PLL coated dishes. […] Following extraction, the SC lysate was measured for protein concentration, and […] of total SC lysate was separated by SDS-PAGE and was transferred to PVDF membranes. […] Bands intensities were quantified and normalized to GAPDH, and to their respective total proteins for phosphorylated forms. […]

β1 integrin = experiment: Western blot densitometry of total β1 integrin protein in subconfluent SCs
Procedure: as §3
as §2, with “Membrane. A) Subconfluent SC cultures grown on PLL and laminin-1 were starved overnight and were stimulated with NRG1 for 30 minutes. SCs were triple-labeled with the indicated antibodies to assess protein co-localization.” for “Membrane.”
as §4

[1] = AG825 in the absence of NRG1 (data not shown)
[2] = NRG1 and laminin-1 30 min in the presence of AG825 (1 μM), compared to starved SCs

COc1cc(/C=C(\C#N)C(N)=O)cc(CSc2nc3ccccc3s2)c1O [AG825]
effect on NRG1 induced change of ErbB2 protein levels (ErbB2; NRG1 30 min with AG825 (1 μM)): attenuated the reduction in ErbB2 levels; also recorded: suppressed NRG1's effect; also recorded: attenuates the loss of ErbB2 protein | effect on ErbB2 levels (ErbB2; laminin-1 30 min with AG825 (1 μM), with respect to laminin-stimulated SCs): did not alter | effect on Pak protein levels (Pak): not significantly changed | effect on Sch protein levels (Sch): not significantly changed | effect on basal level of phosphorylated Sch (PS518-Sch; [1]): increases basal levels | reduction of Sch-S518 phosphorylation in response to NRG1 (PS518-Sch; NRG1 10 ng/ml 30 min with inhibitor (AG825 1 μM or PKI 14-22 50 nM)): 50% | effect on NRG1 stimulated Sch-S518 phosphorylation (PS518-Sch; NRG1 30 min with inhibitor (AG825 1 μM or PKI 14-22 50 nM)): reduced | PS518-Sch fold increase (PS518-Sch; [2]): 4.6 fold | effect on basal level of phosphorylated Pak (P-Pak; [1]): increases basal levels | P-Pak fold increase (P-Pak; [2]): 3.1 fold | effect on NRG1 stimulated CREB phosphorylation (P-CREB; NRG1 30 min with inhibitor (AG825 or PKI 14-22 50 nM)): inhibit this phosphorylation | effect on CREB phosphorylation in dually stimulated SCs (P-CREB; NRG1 and laminin-1 30 min with AG825 (1 μM)): inhibited phosphorylation of CREB; also recorded: eliminated | effect on NRG1 stimulated phosphorylation of ErbB2 (P-ErbB2): reduced NRG1 stimulated phosphorylation of ErbB2 significantly | effect on NRG1 induced increase of β1 integrin protein levels (β1 integrin; NRG1 30 min with AG825 (1 μM)): suppressed NRG1's effect; also recorded: inhibits the increase in β1 integrin | effect on β1 integrin protein levels (β1 integrin; NRG1 and laminin-1 30 min in the presence and absence of AG825): not significantly changed | decrease in β1 integrin levels (β1 integrin; laminin-1 30 min with AG825 (1 μM)): 50%
